Patent publication US8916561B2, “Substituted quinoxaline compounds for the inhibition of PASK” (BioEnergenix, LLC, priority 2011, dated 2014)

Legend:
[1] = target: T1, hPASK (Homo sapiens, UniProt Q96RG2); experiment: Cell assay for hPASK activity, phospho-AKT substrate antibody; type: cell-based; design: expressed in transfected cells; host or cells: HEK293T; details: HEK293T cells transfected with V5-tagged PASK, phospho-AKT substrate antibody Western blot
Method: The assay applies the ability of PASK to autophoshorylate in vivo on the sequence recognized by phospho-Akt substrate antibody (110B7E, Cell Signaling). Cell line HEK293T is transfected with vector (pcDNA 3.1-PASK) expressing V5-tagged wilde-type of PASK. Transfected cells are then treated with putative inhibitors of PASK. Twenty-four hours post treatment cells are lysed and PASK is separated from cellular proteins by immunoprecipitation with V5-conjugated beads (Sigma). PASK is released from immunocomlexes, separated on the SDS-PAGE gel and transferred on nitrocellulose membrane. Fraction of PASK phosphorylated on phospho-AKT Substrate site(s) is determined by probing with phospho-AKT antibody and normalized to total PASK level present in the same immunoprecipitates. We have shown the correlation between phosphorylation of phospho-AKT Substrate sequence and inhibition of PASK activity in vivo.
HEK293T cells are maintained and propagated in 10 cm dish in 10 ml of DMEM/10% FBS, split and re-seeded in 6 well plate (10^6 cells/well) in 2 ml of DMEM/10% FBS. Cells are transfected 18 hours post plating with lug of construct expressing wild-type of hPASK using lipofectamine 2000 according to the manufacturers protocol (Invitrogen). Cells expressing PASK are treated either with DMSO or PASK inhibitors. […] Intensities of the bands are quantitated and data normalized.
Target sequence in this assay (Q96RG2 whole entry): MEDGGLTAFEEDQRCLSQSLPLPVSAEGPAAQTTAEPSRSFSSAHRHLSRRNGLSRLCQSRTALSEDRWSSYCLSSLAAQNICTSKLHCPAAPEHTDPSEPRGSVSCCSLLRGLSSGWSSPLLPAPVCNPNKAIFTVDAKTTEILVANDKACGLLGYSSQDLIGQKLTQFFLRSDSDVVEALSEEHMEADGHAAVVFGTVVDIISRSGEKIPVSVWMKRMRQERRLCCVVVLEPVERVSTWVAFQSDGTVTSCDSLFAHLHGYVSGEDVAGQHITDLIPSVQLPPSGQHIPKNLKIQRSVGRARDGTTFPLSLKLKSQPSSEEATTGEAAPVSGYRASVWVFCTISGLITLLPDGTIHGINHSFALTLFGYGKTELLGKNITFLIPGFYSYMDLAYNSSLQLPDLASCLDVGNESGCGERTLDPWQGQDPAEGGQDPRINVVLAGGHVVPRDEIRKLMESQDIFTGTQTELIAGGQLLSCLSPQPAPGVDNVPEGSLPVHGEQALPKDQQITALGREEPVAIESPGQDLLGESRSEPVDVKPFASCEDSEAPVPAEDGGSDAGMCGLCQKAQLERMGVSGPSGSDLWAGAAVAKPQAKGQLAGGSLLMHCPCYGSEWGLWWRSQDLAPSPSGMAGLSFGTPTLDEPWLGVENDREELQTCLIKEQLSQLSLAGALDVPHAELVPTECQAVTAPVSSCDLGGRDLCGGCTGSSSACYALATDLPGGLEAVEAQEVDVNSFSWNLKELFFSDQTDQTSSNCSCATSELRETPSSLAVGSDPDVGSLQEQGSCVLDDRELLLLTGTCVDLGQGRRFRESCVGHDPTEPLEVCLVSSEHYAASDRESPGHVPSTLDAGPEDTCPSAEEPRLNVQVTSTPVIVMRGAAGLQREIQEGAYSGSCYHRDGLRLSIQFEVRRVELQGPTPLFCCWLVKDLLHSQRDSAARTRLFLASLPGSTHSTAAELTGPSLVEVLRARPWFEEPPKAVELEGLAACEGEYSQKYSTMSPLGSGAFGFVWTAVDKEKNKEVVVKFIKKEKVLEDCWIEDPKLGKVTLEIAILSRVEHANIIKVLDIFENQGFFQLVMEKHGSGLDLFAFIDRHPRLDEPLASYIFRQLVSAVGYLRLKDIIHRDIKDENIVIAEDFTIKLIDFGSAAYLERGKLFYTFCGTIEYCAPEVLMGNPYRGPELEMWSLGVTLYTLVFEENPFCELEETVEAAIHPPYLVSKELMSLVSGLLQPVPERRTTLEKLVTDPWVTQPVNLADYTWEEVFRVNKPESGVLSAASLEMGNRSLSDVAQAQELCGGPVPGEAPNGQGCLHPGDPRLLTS

[2] = target: T2, PASK (Invitrogen) (Homo sapiens, UniProt Q96RG2); experiment: PAS Kinase FRET Assay; type: biochemical; details: TR-FRET (665 nm/615 nm), Ulight-peptide substrate; read-out: IC50 Kinase Domain
T2 construct: IC50 Kinase Domain; purchased Invitrogen
Text: The aim of the FRET assay is to determine the inhibition potential of test compounds on targeted kinase. This assay platform provides a homogenous screening method for measuring kinase activity by quantitating the amount of phospho-substrate in solution following a kinase reaction.
In the presence of kinase and ATP, the Ulight-peptide is phosphorylated and captured by an anti-phospho-substrate antibody, which brings the Eu chelate donor and Ulight acceptor dyes into close proximity. Upon excitation at 340 nm, the Eu chelate transfers its energy to the Ulight dye, resulting in a fluorescent light emission at 665 nm.
Titration of kinase at 1 mM ATP was achieved via the following protocol. After making serial three-fold dilutions of PASK (Invitrogen) in reaction buffer across the plate; 5 μl of kinase dilution and 5 μl substrate/ATP mix were added to the wells of the white Optiplate-384 (PerkinElmer). The contents of the plate were incubated at RT for 1 h. The reaction was stopped by adding 5 μl of stop solution to each test well followed by mixing and incubation at RT for 10 minutes. 5 μl of detection mix (detection antibody diluted in detection butler) was added; the contents of the plate were mixed and then incubated in the dark for 1 hour at RT. The signal was recorded at TR-FRET mode (665 nm/615 nm), The results were graphed to calculate the EC50.
Titration of ATP at the EC50 concentration of kinase to determine ATP Km,app. was performed using the following method. After making serial dilutions of ATP (Invitrogen), 5 μl of ATP dilution and 5 μl substrate/kinase mix were added to the wells of the white Optiplate-384 (PerkinElmer). The contents of the plate were and incubated at RT for 1 h. The reaction was stopped by adding 5 μl of stop solution to each test well followed by mixing and incubation at RT for 10 minutes. 5 μl of detection mix (detection antibody diluted in detection buffer) was added; the contents of the plate were mixed and then incubated in the dark for 1 hour at RT. The signal was recorded at TR-FRET mode (665 nm/615 nm). The results were graphed to calculate the EC50 as the ATP Km,app.
Compound screening was done via the following method. 10 mM stock solution of test compound in DMSO was prepared by dissolving test compound in DMSO at RT for 1 hour, and then sonicating at 100% output for 8 minutes. If compound is not soluble under this condition, it was diluted to 3 mM. Kinase reaction buffer was prepared containing 10 mM MgCl2, 50 mM HEPES, 1 EGTA, 0.01% TWEEN-20, 2 mM WT. Serial dilutions of the test compounds were prepared at 4× final assay concentrations using Freedom EVO200® dispensing system as follows: 12×10^−5M, 4×10^−5 M, 1.33×10^−5M, 4.44×10^−6 M. 1.48×10^−6 M, 4.92×10^−7 M, 1.65×10^−7 M, […], 1.82×10^−8 M, 6.09×10^−9, 2.03×10^−9 M. Test compounds (2.5 μl at 4× the final assay concentration) was added to wells using Freedom EVO200® dispensing system. As a positive control, 2.5 μl of positive compound was added to assay wells, and 2.5 μl of DMSO to assay wells as vehicle control. Kinase solution was prepared in reaction buffer at 2× final assay concentration. Kinase solution (5 μl) was added to each well of the assay plate. The substrate and ATP solution was prepared in kinase reaction buffer at 4× final assay concentration. The kinase reaction was started by adding 2.5 μl of substrate+ATP mix solution to each well of the assay plate. The plate is mixed on a plate shaker; then covered and allowed to react for 2 hours in the dark at 25° C. without shaking. The reaction was stopped by adding 5 μl of stop solution to each test well followed by mixing and incubation at RT for 10 minutes in the dark. 5 μl of detection mix (detection antibody diluted in detection buffer) was added; the contents of the plate were mixed and then incubated in the dark for 1 hour at RT. The signal was recorded at TR-FRET mode (665 nm/615 nm).

[3] = target: T3, PASK (UniProt #Q96RG2; human recombinant N-terminal GST tagged construct, residues 879-1323) (Homo sapiens, UniProt Q96RG2); experiment: PASK ATP Radiochemical Assay; type: biochemical; details: 33P-ATP radiochemical assay, Myelin Basic Protein substrate; read-out: IC50 Kinase Domain
T3 construct: human recombinant N-terminal GST tagged construct, residues 879-1323; GST (N); host or cells: insect cells
Method: Purified PASK (UniProt #Q96RG2; human recombinant N-terminal GST tagged construct, residues 879-1323) from insect cells (final concentration 5 nM) is added to freshly prepared Base Reaction Buffer containing 20 mM HEPES (pH 7.5), 10 mM MgCl2, 1 mM EGTA, 0.02% Brij35, 0.02 mg/ml BSA, 0.1 mM Na3VO4, 2 mM DTT, 1% DMSO and Myelin Basic Protein (20 μM final). Test compounds in DMSO are then added and the mixture, followed by delivery of ^33P-ATP (specific activity 0.01 μCi/μl final) to initiate the reaction. The kinase reaction is incubated for 120 min at room temperature. The entire reaction mixture is washed through onto a P81 Phosphocellulose paper and washed three times for 10 minutes in 75 mM phosphoric acid and once in methanol prior to drying and scintillation counting.

[4] = target: T1, hPASK; experiment: PAS Kinase Luminescence Assay (Kinase-Glo); type: biochemical; design: IC50 Kinase Domain; host or cells: insect cells; details: MBP substrate, read-out: IC50 Kinase Domain
Method: One assay for purified hPASK activity utilizes the Kinase-Glo Luminescent Kinase Assay (Promega), which quantifies the amount of ATP remaining in solution following kinase reaction. The assay is carried out in a 96-well plate format and is performed by adding a volume of Kinase-Glo Reagent (Promega, catalog #V3771) equal to the volume of solution in the well of a completed kinase reaction. Kinase-Glo reagent contains Luciferase and its substrate. After addition to a kinase reaction it allows to measure luminescence. The amount of ATP left in solution at the time of Kinase-Glo Plus addition is directly proportional to the luminescence that is measured in each well, and inversely correlated with kinase activity.
Purified hPASK from insect cells (0.02 μg) is added to a 50 μL reaction mix containing 40 mM HEPES (pH 7.0), 100 mM KCl, 5 mM MgCl2, 1 mM DTT and 1 μg of MBP protein. Inhibitory compounds are then added and the mixture is incubated for 10 min at 25° C. before adding 5 μL of ATP (at desired concentration). The reaction is allowed to proceed at 25° C. for 1 hour before adding 50 μL of Kinase-Glo reagent. The luminescence is measured as soon as 10 minutes after Kinase-Glo reagent is added.
Target sequence in this assay (Q96RG2 999-1251 limits assumed): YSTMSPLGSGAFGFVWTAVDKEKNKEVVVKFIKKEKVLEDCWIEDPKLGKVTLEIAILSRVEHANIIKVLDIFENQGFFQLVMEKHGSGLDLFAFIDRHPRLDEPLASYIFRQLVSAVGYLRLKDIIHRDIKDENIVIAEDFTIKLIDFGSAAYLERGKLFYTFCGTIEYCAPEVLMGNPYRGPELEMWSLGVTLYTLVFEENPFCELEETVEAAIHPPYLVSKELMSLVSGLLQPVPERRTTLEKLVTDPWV

T3 sequence (Q96RG2 879-1323, stated change not applied): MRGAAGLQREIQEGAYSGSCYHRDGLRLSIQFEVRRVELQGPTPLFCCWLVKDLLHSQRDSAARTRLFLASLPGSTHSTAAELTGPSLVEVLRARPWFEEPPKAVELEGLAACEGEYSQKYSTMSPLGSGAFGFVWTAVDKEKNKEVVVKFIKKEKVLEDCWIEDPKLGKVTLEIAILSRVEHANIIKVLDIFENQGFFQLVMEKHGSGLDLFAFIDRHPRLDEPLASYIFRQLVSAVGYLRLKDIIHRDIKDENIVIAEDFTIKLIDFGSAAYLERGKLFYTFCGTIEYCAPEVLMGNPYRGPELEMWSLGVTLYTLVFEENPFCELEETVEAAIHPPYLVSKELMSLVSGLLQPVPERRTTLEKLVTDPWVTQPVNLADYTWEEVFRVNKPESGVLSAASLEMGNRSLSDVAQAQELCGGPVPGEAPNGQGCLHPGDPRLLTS
T2 sequence (Q96RG2 999-1251 limits assumed): as the sequence (Q96RG2 999-1251 limits assumed) above

CC(C)N(C)c1nc2cc(C(N)=O)ccc2nc1-c1ccc(F)cc1 [Example 1, 2-(4-Fluorophenyl)-3-(isopropyl(methyl)amino)quinoxaline-6-carboxamide]
IC50 [1]: ≤ 10 µM
IC50 [2]: ≤ 10 µM
IC50 [3]: ≤ 10 µM

Cc1[nH]c2ccc(-c3nc4ccc(-c5nnn[nH]5)cc4nc3N(C)C(C)C)cc2c1C(=O)C(F)(F)F [Example 24, 2,2,2-Trifluoro-1-(5-(3-(isopropyl(methyl)amino)-6-(1H-tetrazol-5-yl)quinoxalin-2-yl)-2-methyl-1H-indol-3-yl)ethanone]
IC50 [2]: ≤ 10 µM

Fc1ccc(-c2nc3ccc(-c4nnn[nH]4)cc3nc2-c2ccc(F)cc2)cc1 [Example 25, 2,3-Bis(4-fluorophenyl)-6-(1H-tetrazol-5-yl) quinoxaline]
IC50 [3]: ≤ 10 µM

COc1ccc(-c2nc3ccc(-c4nnn[nH]4)cc3nc2-c2ccc(OC)cc2)cc1 [Example 26, 2,3-Bis(4-methoxyphenyl)-6-(1H-tetrazol-5-yl)quinoxaline]
IC50 [2]: ≤ 10 µM
IC50 [3]: ≤ 10 µM

CCc1ccc(-c2nc3ccc(-c4nnn[nH]4)cc3nc2-c2ccc(CC)cc2)cc1 [Example 27, 2,3-Bis(4-ethylphenyl)-6-(1H-tetrazol-5-yl)quinoxaline]
IC50 [3]: ≤ 10 µM

CC(C)N(C)c1nc2cc(-c3nn[nH]n3)ccc2nc1-c1ccc(F)cc1 [Example 28, 3-(4-Fluorophenyl)-N-isopropyl-N-methyl-7-(2H-tetrazol-5-yl)quinoxalin-2-amine]
IC50 [2]: ≤ 10 µM
IC50 [3]: ≤ 10 µM

C[C@H]1CCCN1c1nc2cc(-c3nn[nH]n3)ccc2nc1-c1ccc(F)cc1 [Example 29, (S)-2-(4-Fluorophenyl)-3-(2-methylpyrrolidin-1-yl)-6-(2H-tetrazol-5-yl)quinoxaline]
IC50 [2]: ≤ 10 µM
IC50 [3]: ≤ 10 µM

CC[C@@H](C)N(C)c1nc2cc(-c3nnn[nH]3)ccc2nc1-c1ccc(F)cc1 [Example 30, (R)—N-sec-Butyl-3-(4-fluorophenyl)-N-methyl-7-(1H-tetrazol-5-yl)quinoxalin-2-amine]
IC50 [2]: ≤ 10 µM

CC(C)N(C)c1nc2cc(-c3nnn[nH]3)ccc2nc1-c1ccc2[nH]ncc2c1 [Example 31, 3-(1H-Indazol-5-yl)-N-methyl-N-(propan-2-yl)-7-(1H-tetrazol-5-yl)quinoxalin-2-amine]
IC50 [2]: ≤ 10 µM

Cc1cc2cc(-c3nc4ccc(-c5nnn[nH]5)cc4nc3N(C)C(C)C)ccc2[nH]1 [Example 32, N-Isopropyl-N-methyl-3-(2-methyl-1H-indol-5-yl)-7-(1H-tetrazol-5-yl)quinoxalin-2-amine]
IC50 [2]: ≤ 10 µM
IC50 [3]: ≤ 10 µM

CC(C)N(C)c1nc2cc(-c3nnn[nH]3)ccc2nc1-c1cc2cc(F)ccc2o1 [Example 33, 3-(5-Fluorobenzofuran-2-yl)-N-methyl-N-(propan-2-yl)-7-(1H-tetrazol-5-yl)quinoxalin-2-amine]
IC50 [2]: ≤ 10 µM

COc1ccc(-c2nc3ccc(NS(C)(=O)=O)cc3nc2-c2ccc(OC)cc2)cc1 [Example 34, N-(2,3-Bis(4-methoxyphenyl)quinoxalin-6-yl)methanesulfonamide]
IC50 [4]: ≤ 10 µM
IC50 [3]: ≤ 10 µM

COc1ccc(-c2nc3ccc(S(N)(=O)=O)cc3nc2-c2ccc(OC)cc2)cc1 [Example 35, 2,3-Bis(4-methoxyphenyl)quinoxaline-6-sulfonamide]
IC50 [4]: ≤ 10 µM

CNS(=O)(=O)c1ccc2nc(-c3ccc(OC)cc3)c(-c3ccc(OC)cc3)nc2c1 [Example 36, 2,3-Bis(4-methoxyphenyl)-N-methylquinoxaline-6-sulfonamide]
IC50 [4]: > 10 µM

COc1ccc(-c2nc3ccc(S(=O)(=O)N4CCOCC4)cc3nc2-c2ccc(OC)cc2)cc1 [Example 37, 4-(2,3-Bis(4-methoxyphenyl)quinoxalin-6-ylsulfonyl)morpholine]
IC50 [4]: ≤ 10 µM

COc1ccc(-c2nc3ccc(S(=O)(=O)O)cc3nc2-c2ccc(OC)cc2)cc1 [Example 38, 2,3-Bis(4-methoxyphenyl)quinoxaline-6-sulfonic acid]
IC50 [2]: ≤ 10 µM
